Reference: patent US20090012038A1, “Methods for microbial biofilm destruction and interference with microbial cellular physiology” (priority 2004, published 2009)

Columns and labels:
[1] = test system: S. oneidensis biofilms; assay: Stop-of-flow-induced detachment of biofilms in hydrodynamic flow chamber (CLSM, COMSTAT); format: cell-based, Shewanella oneidensis MR-1
Protocol: Transcription is not required for the oxygen starvation-induced detachment. To directly test whether transcription is required for detachment upon rapid decrease in molecular oxygen concentration, we grew biofilms of S. oneidensis in LM medium for 12 h, and subsequently switched the medium to a LM medium amended with 10 μg/ml rifampicin for 10 or 40 minutes, respectively. After that time period, the medium flow was stopped to induce detachment.
External addition of c-di-GMP reversibly prevents biofilm detachment. […] We, therefore, predicted that amending the flow through medium of a biofilm in a hydrodynamic system with c-di-GMP should prevent the induction of detachment after applying a stop-of-flow. To test this hypothesis, biofilms of wild type S. oneidensis were grown in LM medium. […] After 30 min, the flow was stopped to induce detachment and the non-detached biomass was quantified. […]
Microscopic visualization of and image acquisition from biofilms took place at the Stanford Biofilm Research Center using an upright Zeiss LSM510 Confocal Laser Scanning Microscope (Carl Zeiss, Jena, Germany) equipped with the following objectives: 10×/0.3 Plan-Neofluar, 20×/0.5W Achroplan, and 40×/1.2W C-Apochromat. […] Biofilm parameters, such as biomass, and average biofilm thickness were quantified with the program COMSTAT (Heydorn et al., 2000).

[2] = test system: S. oneidensis strain AS129 biofilm cells (IPTG inducible gfp); assay: Transcription test in biofilm cells: IPTG-inducible gfp, GFP fluorescence by CLSM; format: cell-based, Shewanella oneidensis; conditions: 10 mM IPTG in flow-through medium; after 1 hour
Protocol: In order to assure that rifampicin indeed inhibited transcription in biofilm cells under those conditions, we designed an experiment to test transcription in biofilm cells. Tester cells were S. oneidensis cells tagged with an IPTG inducible gfp under control of Pt, which is repressed by LacIQ. […] Upon addition of 10 mM ITPG to the flow-through-medium, the induction of GFP in biofilm cells was readily observed by CLSM throughout the entire biofilm and quantified. This assay is very sensitive, and after 1 hour, about 20% of the maximal inducible GFP fluorescence was observed.

SMILES	detachment after stop-of-flow following removal of c-di-GMP ([1]; flow resumed with LM devoid of c-di-GMP, 2 h incubation, then flow stopped)	detachment after stop-of-flow ([1]; wild type biofilm 12 h in LM, medium amended with 5 mM c-di-GMP, flow stopped after 30 min)	GFP fluorescence, share of the maximal inducible GFP fluorescence [2]
Nc1nc2c(ncn2[C@@H]2O[C@@H]3COP(=O)(O)O[C@H]4[C@@H](O)[C@H](n5cnc6c(=O)[nH]c(N)nc65)O[C@@H]4COP(=O)(O)O[C@H]3[C@H]2O)c(=O)[nH]1 [c-di-GMP, cyclic-bis(3′,5′)guanylic acid]	the biofilm still detached	no detachment was observed	
CC(C)S[C@@H]1O[C@H](CO)[C@H](O)[C@H](O)[C@H]1O [IPTG, isopropyl-D-D-thiogalactopyranosid]			about 20%
